{"source": "patent US11192921B2", "about": "(priority 2017, dated 2021)", "key": {"Female Kunming mice": {"system": "Female Kunming mice", "format": "in vivo", "details": "mouse, in vivo, ip"}, "Kunming mice [1]": {"system": "Kunming mice", "format": "in vivo", "details": "mouse, in vivo"}, "Kunming mice [2]": {"system": "Kunming mice", "details": "mouse, in vivo"}}, "note": "Values joined by “and” are separate entries in the source; they are usually repeats but may differ in a detail not shown here. Equal values may be shown once. No end group written: not given here."}
{"sequence": "GCCSTPPCAVLYC (cysteine pairing not given here) [Conotoxin, reference compound]", "values": [{"measurement": "Pain threshold", "setting": "Female Kunming mice", "value": "27.29 ± 0.48 s and 29.32 ± 0.18 s and 24.1 ± 0.28 s and 30.39 ± 0.28 s and 27.39 ± 0.28 s and 26.21 ± 0.38 s and 24.63 ± 0.12 s"}, {"measurement": "Pain threshold (tail flick)", "setting": "Kunming mice [1]", "value": "2.23 ± 0.18 s and 2.32 ± 0.28 s and 2.21 ± 0.12 s and 2.31 ± 0.18 s and 2.12 ± 0.12 s and 2.63 ± 0.12 s"}, {"measurement": "cumulative foot licking time, Phase I", "setting": "Kunming mice [2]", "value": "50.38 ± 9.38"}, {"measurement": "cumulative foot licking time, Phase II", "setting": "Kunming mice [2]", "value": "53.64 ± 15.32"}]}
